Results on seven compounds are retold here after PubChem BioAssay (NCI).

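Where inhibition never reached the appropriate level, the endpoint shown equals the highest concentration tested. Otherwise, values were interpolated linearly from a five-concentration, 48-hour dose response in 96-well plates. Here, GI50 denotes the concentration required for 50% inhibition of growth. TGI is the concentration that stops growth completely.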 A value given as a limit tells only on which side of the number the result lay.

Experiment in all cases: NCI-60 cell line screen, 48 h
Experiment [1] concerns RXF 393 renal.
For experiment [2], the system named is LOX IMVI melanoma.
Experiment [3] relates to NCI-H23 lung.
Experiment [4] deals with MDA-MB-435.
Experiment [5] relates to NCI-H226 lung.
Experiment [6] deals with HS 578T breast.
In experiment [7] the test system is SK-MEL-28 melanoma.
Experiment [8] has as its system MOLT-4 leukemia.
Experiment [9] has as its system OVCAR-5 ovarian.
The test system of experiment [10] is HT29 colon.

In the case of `O=C1c2c(Cl)c(Cl)c(Cl)c(Cl)c2C(=O)C2(Cl)CC=CCC12Cl` (stereo not given), the GI50 in experiment [1] was 1.63 µM; in experiment [2], 1.21 µM; in experiment [3] it was 1.84 µM; in experiment [4], 2.06 µM; in experiment [5] it was 1.97 µM; in experiment [6] it was 2.04 µM. Moreover, the results for the GI50 in experiment [7], in experiment [8] and in experiment [9] were 1.8 µM, 2.39 µM and 2.51 µM, respectively. Also, the TGI in experiment [1] was 3.01 µM; in experiment [2] it was 2.56 µM; in experiment [3], 3.94 µM; in experiment [4] it was 4.32 µM; in experiment [5] it was 4.88 µM; in experiment [6] it was 5.88 µM. Also, the TGI in [7] was 3.28 µM; in experiment [8], 6.36 µM; in [9] it was 5.74 µM.

As to `O=C(c1ccccc1)c1nc2ccc(C(F)(F)F)cc2nc1N1CCN(c2ccccc2)CC1`, the GI50 in experiment [1] is 35.5 µM; in [2] it was 18.5 µM; in [3], 25.7 µM; in experiment [4] it was 35.6 µM; in [5], 18.2 µM; in [6] it was 65 µM. Further, the figures for the GI50 in [8] and in experiment [9] were 24.6 µM and 70.5 µM, respectively. For the same compound, the TGI in experiment [1] is > 100 µM; in experiment [2], 38.4 µM; in experiment [3] it was 69.5 µM; in [4], > 100 µM; in experiment [5], 46.9 µM; in experiment [6] it was > 100 µM. Further, the TGI in experiment [8] and in experiment [9] was > 100 µM throughout.

In the case of `CCCCCCCCCCCCCCCCN(CC)CC`, the GI50 in experiment [1] is 1.88 µM; in experiment [2], 1.73 µM; in [3] it was 2.83 µM; in [4], 1.95 µM; in experiment [5], 3.74 µM; in experiment [10], 2.13 µM. For the same compound, the GI50 was 3.47 µM in experiment [6], 1.91 µM in [7] and 1.94 µM in experiment [9]. Moreover, the TGI in experiment [1] amounted to 4.2 µM; in [2], 3.38 µM; in experiment [3], 9 µM; in [4], 3.86 µM; in experiment [5], 16.9 µM; in experiment [10] it was 4.59 µM. The TGI was determined as 15.8 µM in experiment [6], 3.84 µM in experiment [7] and 4.26 µM in experiment [9].

As for `COc1cc2nc3cc([N+](=O)[O-])ccc3c(NCCNCC(C)O)c2cc1OC` (stereo not given), the GI50 was 0.641 µM in [1]; 0.768 µM in experiment [2]; 0.554 µM in experiment [3]; 0.572 µM in experiment [4]; 1.05 µM in [5]; 0.317 µM in experiment [10]. Besides, the GI50 was 1.45 µM in [6], 0.353 µM in [8] and 2.61 µM in experiment [9]. Moreover, the TGI amounted to 2.34 µM in [1]; 2.51 µM in [2]; 3.07 µM in experiment [3]; 1.98 µM in [4]; 3.18 µM in [5]; 1.28 µM in [10]. The TGI was found to be 5.51 µM in experiment [6], 6.21 µM in experiment [8] and 9.41 µM in experiment [9].

`C=C1C(=O)C2=CC1CCC(=O)C1(C)CCC(OC(C)=O)C(C)(C)C1CC2O` (stereo not given): the TGI was 6.31 µM in experiment [1]; > 22.5 µM in experiment [2]; 8.62 µM in experiment [3]; 26 µM in experiment [4]; 31.9 µM in [5]; 10.1 µM in [10]. Besides, the TGI was 20.4 µM in experiment [6], > 46.4 µM in [7] and 18.9 µM in [9].

With `O=C(O)Cc1ccc(N=Nc2c(O)c(C(=O)O)cc3ccccc23)cc1`, the TGI in experiment [1], in experiment [4], in [5], in experiment [10], in experiment [6] and in experiment [7] was > 100 µM throughout. The TGI in experiment [8] and in [9] was > 100 µM each time.

In the case of `O=C(O)c1cn(C2CC2)c2cc(N3CCN(Cc4c(O)ccc5ccccc45)CC3)c(F)cc2c1=O`, the GI50 was 2.68 µM in [1]; 4.67 µM in experiment [2]; 4.63 µM in experiment [3]; 4.18 µM in experiment [4]; 5.45 µM in experiment [5]; 8.5 µM in [10]. For the same compound, the values for the GI50 in [6], in experiment [7] and in experiment [9] were 2.74 µM, 6.32 µM and > 100 µM, respectively. The TGI in [1] was 8.34 µM; in experiment [2], > 100 µM; in [3], > 100 µM; in experiment [4], > 100 µM; in experiment [5] it was > 100 µM; in [10], > 100 µM. Further, the TGI was 17.2 µM in experiment [6], > 100 µM in experiment [7] and > 100 µM in experiment [9].
